Viability data for 76 compounds are collected here from publication PMC12040169 (PLOS Biology, 2025).

The term viability denotes a read-out of living cells in per cent, often relative to untreated cells.

The nature of the series: in vitro. As to conditions: human, hela cells, % viability.

For the compound `CC(Oc1ccc(Cl)cc1Cl)C(=O)Nc1ccc(N2CCN(C)CC2)cc1` (stereo not shown) [CBK266780], the viability at 28.5 h, 10 µM was 94.1%.

Turning to `Cc1cc(Cl)c(S(=O)(=O)N2CCCC2)cc1OCC(=O)NC1CCCCC1` [CBK266781], the viability at 28.5 h, 10 µM was 93.9%.

Regarding `CN(C)S(=O)(=O)c1cc(C(=O)Nc2ccc(C(=O)O)cc2)c(Cl)cc1Cl` [CBK266783], the viability at 28.5 h, 10 µM is 99.5%.

As to `O=C(Nc1cc(Cl)ccc1O)c1ccc(C(=O)Nc2cc(Cl)ccc2O)cc1` [CBK266784], the viability at 28.5 h, 10 µM was 94.9%.

Turning to `Cc1cc(Cl)c(S(=O)(=O)Nc2ccc3c(c2)OCCO3)cc1OCC(=O)NC1CCCCC1` [CBK266786], the viability at 28.5 h, 10 µM came to 95.5%.

For `COc1ccc(-c2nc3ccccc3o2)cc1NC(=O)C(C)Oc1ccc(Cl)cc1Cl` (stereo not shown) [CBK266787], the viability at 28.5 h, 10 µM was found to be 76.4%.

Take `CC1CCN(S(=O)(=O)c2cccc(C(=O)N3CCC(C(=O)O)CC3)c2)CC1` [CBK266790]: the viability at 28.5 h, 10 µM was found to be 87.4%.

In the case of `COc1cc(OC)c(NC(=O)C(C)Oc2ccc(Br)cc2)cc1Cl` (stereo not shown) [CBK266791], the viability at 28.5 h, 10 µM came to 97%.

`O=C(NNC(=O)c1cccnc1)c1ccc(NC(=O)c2ccco2)cc1` [CBK266792]: the viability at 28.5 h, 10 µM came to 111%.

As for `CC1CCN(S(=O)(=O)c2cccc(C(=O)NNC(=O)c3ccco3)c2)CC1` [CBK266796], the viability at 28.5 h, 10 µM worked out at 92.2%.

On to `Cc1cc(Cl)c(S(=O)(=O)N2CCN(c3ccccn3)CC2)cc1OCC(=O)NC1CCCCC1` [CBK266798], for which the viability at 28.5 h, 10 µM came to 90.7%.

As to `Cc1nnc2sc(-c3ccc(NC(=O)CSc4ccc(Cl)cc4)cc3)nn12` [CBK266800], the viability at 28.5 h, 10 µM amounted to 108%.

Turning to `COc1ccc(S(=O)(=O)Nc2ccc(S(=O)(=O)Nc3nccs3)cc2)c([N+](=O)[O-])c1` [CBK266801], the viability at 28.5 h, 10 µM stood at 95.6%.

`Cc1nnc2sc(-c3ccc(NC(=S)NC(=O)c4ccc(-c5ccccc5[N+](=O)[O-])o4)cc3)nn12` [CBK266803]: the viability at 28.5 h, 10 µM was 86.4%.

As for `O=C(CCc1nc2ccccc2nc1O)OCc1cccc([N+](=O)[O-])c1` [CBK266804], the viability at 28.5 h, 10 µM worked out at 85%.

Take `COc1ccc(/C(N)=N/OC(=O)C(C)Oc2ccc(Br)cc2)cc1OC` (stereo not shown) [CBK266807]: the viability at 28.5 h, 10 µM is 95.6%.

With `COc1ccc2c(c1)c(=O)oc1c(CN3CCCC3)c(O)ccc12` [CBK266814], the viability at 28.5 h, 10 µM was found to be 95.3%.

For `Cc1nnc(SCC(=O)Nc2cc(C(F)(F)F)ccc2N2CCOCC2)o1` [CBK266815], the viability at 28.5 h, 10 µM came to 109%.

Regarding `CCOc1cc(S(=O)(=O)NCc2ccccn2)ccc1Cl` [CBK266817], the viability at 28.5 h, 10 µM is 99.2%.

As for `CCCNC(CC(=O)Nc1ccccc1)C(=O)O` (stereo not shown) [CBK266819], the viability at 28.5 h, 10 µM was 95.3%.

Turning to `Cc1cccc(NC(=O)C(CC(=O)O)NCc2ccccc2)c1` (stereo not shown) [CBK266821], the viability at 28.5 h, 10 µM came to 87.3%.

With `Cc1c(Cl)cccc1NC(=S)NNC(=O)C(C)Oc1ccc(F)cc1F` (stereo not shown) [CBK266823], the viability at 28.5 h, 10 µM was 97.8%.

On to `Nc1ccccc1-c1ccccc1NC(=O)C(=O)O` [CBK266824], for which the viability at 28.5 h, 10 µM was 110%.

`CCN1CCN(C(=O)c2ccccc2N(Cc2ccccc2)S(=O)(=O)c2ccc(C)cc2)CC1` [CBK266827]: the viability at 28.5 h, 10 µM was determined as 91.6%.

Take `CS(=O)(=O)N(CC(=O)Nc1ccc(S(=O)(=O)N2CCCCCC2)cc1)c1ccccc1F` [CBK266829]: the viability at 28.5 h, 10 µM was 92.9%.

Turning to `O=C(CC(NC1CCCC1)C(=O)O)Nc1cccc(Cl)c1` (stereo not shown) [CBK266831], the viability at 28.5 h, 10 µM turned out to be 105%.

On to `COc1ccc(-n2c(S)nnc2-c2cccs2)cc1` [CBK266832], for which the viability at 28.5 h, 10 µM came to 103%.

In the case of `COc1ccc(CCNC(=O)c2ccccc2N(C)S(C)(=O)=O)cc1` [CBK266833], the viability at 28.5 h, 10 µM is 104%.

For the compound `CSc1ccccc1NC(=O)CN(c1ccc(F)cc1)S(=O)(=O)c1ccc2c(c1)OCCO2` [CBK266836], the viability at 28.5 h, 10 µM was 101%.

`Cn1c(=O)c2ncn(CC(=O)Nc3cccc(C(=O)O)c3)c2n(C)c1=O` [CBK266838]: the viability at 28.5 h, 10 µM was 98.4%.

Turning to `O=c1[nH]c(/C=C\c2cccc(OCCOc3ccccc3)c2)c([N+](=O)[O-])c(=O)[nH]1` [CBK266840], the viability at 28.5 h, 10 µM turned out to be 105%.

For `COc1nc(-c2ccccc2)ccc1-c1noc(COc2ccccc2)n1` [CBK266841], the viability at 28.5 h, 10 µM turned out to be 91.8%.

Turning to `O=C(NNC(=S)NCC1CCCO1)c1cccnc1` (stereo not shown) [CBK266842], the viability at 28.5 h, 10 µM stood at 97.5%.

Take `Cc1cccc(OCCSc2nc3c(N)ncn(Cc4ccccc4)c-3n2)c1` [CBK266843]: the viability at 28.5 h, 10 µM turned out to be 84.1%.

For `Cc1cc(C)c(S(=O)(=O)N2CCC(C(=O)NNC(=S)NC3CCCC3)CC2)c(C)c1` [CBK266844], the viability at 28.5 h, 10 µM is 98.4%.

In the case of `O=C(CCc1ccc(S(=O)(=O)NC2CCCCC2)cc1)Nc1ccc2c(c1)OCCO2` [CBK266845], the viability at 28.5 h, 10 µM worked out at 95.2%.

Regarding `COC(=O)c1c(NC(=S)Nc2cn(C)nc2C(N)=O)sc2c1CCCCC2` [CBK266849], the viability at 28.5 h, 10 µM was determined as 93.4%.

On to `CC(Oc1ccc2c(c1)OCO2)C(=O)NNC(=O)Nc1cccc(Cl)c1Cl` (stereo not shown) [CBK266852], for which the viability at 28.5 h, 10 µM was found to be 86.5%.

In the case of `Cn1c2ccccc2n2c(SCc3nc4ccc([N+](=O)[O-])cc4[nH]3)nnc12` [CBK266853], the viability at 28.5 h, 10 µM worked out at 88.6%.

Regarding `COc1cc([N+](=O)[O-])ccc1NC(=O)NCc1ccco1` [CBK266855], the viability at 28.5 h, 10 µM came to 101%.

With `O=C(COc1ccc(F)cc1F)NNC(=S)NC1CCCCC1` [CBK266859], the viability at 28.5 h, 10 µM amounted to 82.2%.

Regarding `COC(=O)c1ccccc1NC(=O)N1CCN(S(=O)(=O)c2ccc(Cl)cc2)CC1` [CBK266860], the viability at 28.5 h, 10 µM came to 88%.

`CC(C)c1ccc(S(=O)(=O)Nc2ccc(O)c(Sc3nc[nH]n3)c2)cc1` [CBK266861]: the viability at 28.5 h, 10 µM was 90.8%.

As to `COC(=O)c1c(NC(=S)Nc2ccc(Br)cn2)sc2c1CCC2` [CBK266862], the viability at 28.5 h, 10 µM stood at 92.9%.

In the case of `COc1cc([N+](=O)[O-])ccc1NC(=S)NNS(=O)(=O)c1cc(Cl)c(Cl)cc1Cl` [CBK266863], the viability at 28.5 h, 10 µM is 96.2%.

For the compound `CC(NS(=O)(=O)c1ccc(CCC(=O)N2CCN(C)CC2)cc1)c1ccccc1` (stereo not shown) [CBK266868], the viability at 28.5 h, 10 µM was found to be 91.7%.

In the case of `Cc1nnc(N2C(=O)c3oc4ccc(Cl)cc4c(=O)c3C2c2cccc(OCc3ccccc3)c2)s1` (stereo not shown) [CBK266870], the viability at 28.5 h, 10 µM is 95%.

Regarding `O=C(NNS(=O)(=O)c1ccc([N+](=O)[O-])cc1)Nc1cccc(C(F)(F)F)c1` [CBK266871], the viability at 28.5 h, 10 µM worked out at 105%.

For the compound `COc1ccc(N(C(C)C(=O)Nc2ccc(Cl)c(Cl)c2)S(C)(=O)=O)cc1` (stereo not shown) [CBK266872], the viability at 28.5 h, 10 µM was 114%.

Turning to `CCOc1ccccc1NC(=O)CN(C)S(=O)(=O)c1ccc2ccccc2c1` [CBK266874], the viability at 28.5 h, 10 µM was determined as 101%.

On to `Cn1c(=O)c2ncn(CC(=O)Nc3ccc(N4CCN(Cc5ccccc5)CC4)cc3)c2n(C)c1=O` [CBK266875], for which the viability at 28.5 h, 10 µM was 99.7%.

Take `Cc1nnc(SCC(=O)NNC(=O)c2cccs2)[nH]1` [CBK266879]: the viability at 28.5 h, 10 µM was determined as 93.7%.

Turning to `NS(=O)(=O)c1ccc(N/C(S)=N\c2cccc(C(=O)O)c2)cc1` [CBK266880], the viability at 28.5 h, 10 µM was determined as 103%.

Turning to `COc1ccc(CCNC(=S)NN2CCN(C)CC2)cc1OC` [CBK266884], the viability at 28.5 h, 10 µM stood at 93.2%.

As for `COC(=O)c1c(NC(=S)NCCn2cc(Br)cn2)sc2c1CCC(C)C2` (stereo not shown) [CBK266886], the viability at 28.5 h, 10 µM came to 89.8%.

As for `COC(=O)c1c(NC(=S)Nc2ccn(C)n2)sc2c1CCCCC2` [CBK266888], the viability at 28.5 h, 10 µM came to 106%.

Turning to `C=CCNC(CC(=O)Nc1ccc(C)c(Cl)c1)C(=O)O` (stereo not shown) [CBK266892], the viability at 28.5 h, 10 µM came out at 92.8%.

As to `CN(c1ccc(C(=O)Nc2ccc(S(=O)(=O)N3CCCC3)cc2)cc1)S(=O)(=O)c1ccccc1` [CBK266896], the viability at 28.5 h, 10 µM stood at 102%.

On to `COc1ccc(CCNC(=S)N2CCN(c3ccccn3)CC2)cc1OC` [CBK266897], for which the viability at 28.5 h, 10 µM turned out to be 94.5%.

For the compound `COc1ccc(S(=O)(=O)N2CCN(C(=S)Nc3ccc(S(N)(=O)=O)cc3)CC2)cc1` [CBK266898], the viability at 28.5 h, 10 µM came to 92.6%.

In the case of `Cc1ccc2oc(-c3cc(NC(=O)c4nc[nH]n4)ccc3O)nc2c1` [CBK266900], the viability at 28.5 h, 10 µM was found to be 101%.

Take `O=C(CCC(=O)c1ccc(F)cc1)Nc1cccnc1` [CBK266901]: the viability at 28.5 h, 10 µM is 89.4%.

Turning to `Cc1ccc(C)c(C(=O)CCC(=O)Nc2cccnc2)c1` [CBK266902], the viability at 28.5 h, 10 µM was found to be 95.8%.

As for `COC(=O)c1c(NC(=S)NCCn2cc(Br)cn2)sc2c1CCC2` [CBK266905], the viability at 28.5 h, 10 µM stood at 98.2%.

Turning to `O=C(O)c1ccc(CNC(=S)NCC2CCCO2)cc1` (stereo not shown) [CBK266908], the viability at 28.5 h, 10 µM came out at 98.2%.

On to `O=C(Oc1ccc(N(C(=O)c2ccncc2)S(=O)(=O)c2cccc3cccnc23)c2ccccc12)c1ccncc1` [CBK266915], for which the viability at 28.5 h, 10 µM was 79.5%.

`COc1ccc(CCNC(=S)N2CCN(S(C)(=O)=O)CC2)cc1OC` [CBK266917]: the viability at 28.5 h, 10 µM is 115%.

As for `CSc1ccccc1NC(=O)Cn1c(-c2nonc2N)nc2ccccc21` [CBK266919], the viability at 28.5 h, 10 µM was 90%.

Consider `CC(Oc1ccc2c(c1)OCO2)C(=O)NNC(=O)Nc1cccc(C(F)(F)F)c1` (stereo not shown) [CBK266922], for which the viability at 28.5 h, 10 µM was 87.7%.

In the case of `Cc1cccc(NC(=O)CC(C(=O)O)N2CCOCC2)c1` (stereo not shown) [CBK266925], the viability at 28.5 h, 10 µM was 96.3%.

For `CCOC(=O)c1cnc(Nc2nc3ccccc3o2)nc1CN1CCN(c2ccccc2)CC1` [CBK266927], the viability at 28.5 h, 10 µM was 93.1%.

With `CC(NS(=O)(=O)c1ccccc1)C(=O)Nc1ccc(S(N)(=O)=O)cc1` (stereo not shown) [CBK266929], the viability at 28.5 h, 10 µM is 110%.

Consider `COc1ccc(S(=O)(=O)NCCO)cc1-c1nnc2c3ccccc3c(C)nn12` [CBK266933], for which the viability at 28.5 h, 10 µM was 91.9%.

Take `Cc1ccc([N+](=O)[O-])cc1S(=O)(=O)Nc1ccc(O)c(Sc2nc3ccccc3s2)c1` [CBK266936]: the viability at 28.5 h, 10 µM was found to be 97.6%.

As for `Cc1ccccc1NC(=O)Cn1c(=O)n(CC(=O)Nc2ccccc2C)c2ccccc21` [CBK266938], the viability at 28.5 h, 10 µM stood at 101%.

In the case of `CNS(=O)(=O)c1ccc(NC(=O)Nc2ccc([N+](=O)[O-])cc2OC)cc1` [CBK266939], the viability at 28.5 h, 10 µM came to 93.1%.
